The test system of this test is atopic dermatitis / plaque psoriasis. In words: Response of individual study subjects to earlier therapy.

For `C[C@H]1C[C@H]2[C@@H]3CCC4=CC(=O)C=C[C@]4(C)[C@@]3(F)[C@@H](O)C[C@]2(C)[C@@]1(O)C(=O)CCl` [clobetasol], the “Response to earlier therapy” value (Subject #2, chronic atopic dermatitis on the neck) is on record as “unresponsive”.
Regarding `CC(=O)OCC(=O)[C@@]12OC(C)(C)O[C@@H]1C[C@H]1[C@@H]3C[C@H](F)C4=CC(=O)C=C[C@]4(C)[C@@]3(F)[C@@H](O)C[C@@]12C` [fluocinonide], the “Response to earlier therapy” value (Subject #5, persistent psoriatic lesions on the abdomen) is “unresponsive”.
Consider etanercept, for which the “Disease control under ongoing therapy” value (Subject #5, chronic severe plaque psoriasis, subcutaneous injections) is listed as “reasonable control”.

These data come from patent US11224619B2, “Formulations and methods for treatment of inflammatory skin diseases” (Zemtsov Enterprises, LLC, priority 2012, dated 2022).
